Drawing on ChEMBL document CHEMBL5465560, “Selectivity Literature for EUbOPEN Chemogenomic Library” (2024), this text covers % of control and % of inhibition for 3 molecules.

Molecules are shown by their SMILES.

Assay [1] deals with T1, Mitogen-activated protein kinase kinase kinase 7 (Homo sapiens) (UniProt O43318).
T1 sequence (whole entry): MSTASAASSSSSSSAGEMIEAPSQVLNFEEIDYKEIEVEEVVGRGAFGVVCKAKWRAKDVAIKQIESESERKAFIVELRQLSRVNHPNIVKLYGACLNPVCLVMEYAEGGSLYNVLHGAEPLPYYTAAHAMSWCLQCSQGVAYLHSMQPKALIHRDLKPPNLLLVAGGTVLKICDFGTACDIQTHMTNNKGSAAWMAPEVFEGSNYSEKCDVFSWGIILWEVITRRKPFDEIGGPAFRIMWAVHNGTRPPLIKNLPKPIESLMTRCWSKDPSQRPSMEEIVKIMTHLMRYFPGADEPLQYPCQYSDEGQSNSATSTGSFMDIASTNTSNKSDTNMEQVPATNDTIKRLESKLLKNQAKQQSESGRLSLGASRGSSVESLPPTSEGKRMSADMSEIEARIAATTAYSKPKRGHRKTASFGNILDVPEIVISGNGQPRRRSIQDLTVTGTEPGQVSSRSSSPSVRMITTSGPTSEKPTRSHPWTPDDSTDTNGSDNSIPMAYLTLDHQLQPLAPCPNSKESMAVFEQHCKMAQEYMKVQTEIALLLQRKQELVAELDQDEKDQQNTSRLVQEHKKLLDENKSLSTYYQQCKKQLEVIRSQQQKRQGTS
The assay is described as follows: Selectivity interaction (KinomeScan (DiscoverX)) EUB0000595a MAP3K7. The note with it: at 10 µM.

Assay [2] deals with T2, Mitogen-activated protein kinase kinase kinase 12 (Homo sapiens) (UniProt Q12852).
T2 sequence (whole entry): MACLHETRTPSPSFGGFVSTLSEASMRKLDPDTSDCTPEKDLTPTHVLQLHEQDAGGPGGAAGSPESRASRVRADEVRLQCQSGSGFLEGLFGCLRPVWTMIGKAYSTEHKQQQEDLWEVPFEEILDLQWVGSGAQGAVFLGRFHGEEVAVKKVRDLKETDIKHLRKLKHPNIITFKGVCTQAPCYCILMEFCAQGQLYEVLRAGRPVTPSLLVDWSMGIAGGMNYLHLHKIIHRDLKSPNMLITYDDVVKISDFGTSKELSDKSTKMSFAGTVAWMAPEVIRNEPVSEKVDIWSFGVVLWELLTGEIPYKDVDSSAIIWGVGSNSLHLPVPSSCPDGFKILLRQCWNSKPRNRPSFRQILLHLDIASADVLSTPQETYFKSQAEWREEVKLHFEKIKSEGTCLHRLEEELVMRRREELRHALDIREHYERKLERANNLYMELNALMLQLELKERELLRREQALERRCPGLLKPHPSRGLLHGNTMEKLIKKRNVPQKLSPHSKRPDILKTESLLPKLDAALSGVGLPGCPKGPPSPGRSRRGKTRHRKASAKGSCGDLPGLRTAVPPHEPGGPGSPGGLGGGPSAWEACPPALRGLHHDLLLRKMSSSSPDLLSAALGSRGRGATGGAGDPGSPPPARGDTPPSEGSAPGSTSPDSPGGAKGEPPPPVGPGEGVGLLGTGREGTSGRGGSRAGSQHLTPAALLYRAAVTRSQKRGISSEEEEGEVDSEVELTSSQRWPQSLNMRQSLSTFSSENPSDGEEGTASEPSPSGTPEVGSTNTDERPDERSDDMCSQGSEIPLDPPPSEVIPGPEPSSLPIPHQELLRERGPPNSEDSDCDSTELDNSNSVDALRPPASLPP
The assay can be described thus: Selectivity interaction (KinomeScan (DiscoverX)) EUB0000607a MAP3K12. The note with it: at 10 µM.

Assay [3] deals with T3, Ephrin type-B receptor 1 (Homo sapiens) (UniProt P54762).
T3 sequence (whole entry): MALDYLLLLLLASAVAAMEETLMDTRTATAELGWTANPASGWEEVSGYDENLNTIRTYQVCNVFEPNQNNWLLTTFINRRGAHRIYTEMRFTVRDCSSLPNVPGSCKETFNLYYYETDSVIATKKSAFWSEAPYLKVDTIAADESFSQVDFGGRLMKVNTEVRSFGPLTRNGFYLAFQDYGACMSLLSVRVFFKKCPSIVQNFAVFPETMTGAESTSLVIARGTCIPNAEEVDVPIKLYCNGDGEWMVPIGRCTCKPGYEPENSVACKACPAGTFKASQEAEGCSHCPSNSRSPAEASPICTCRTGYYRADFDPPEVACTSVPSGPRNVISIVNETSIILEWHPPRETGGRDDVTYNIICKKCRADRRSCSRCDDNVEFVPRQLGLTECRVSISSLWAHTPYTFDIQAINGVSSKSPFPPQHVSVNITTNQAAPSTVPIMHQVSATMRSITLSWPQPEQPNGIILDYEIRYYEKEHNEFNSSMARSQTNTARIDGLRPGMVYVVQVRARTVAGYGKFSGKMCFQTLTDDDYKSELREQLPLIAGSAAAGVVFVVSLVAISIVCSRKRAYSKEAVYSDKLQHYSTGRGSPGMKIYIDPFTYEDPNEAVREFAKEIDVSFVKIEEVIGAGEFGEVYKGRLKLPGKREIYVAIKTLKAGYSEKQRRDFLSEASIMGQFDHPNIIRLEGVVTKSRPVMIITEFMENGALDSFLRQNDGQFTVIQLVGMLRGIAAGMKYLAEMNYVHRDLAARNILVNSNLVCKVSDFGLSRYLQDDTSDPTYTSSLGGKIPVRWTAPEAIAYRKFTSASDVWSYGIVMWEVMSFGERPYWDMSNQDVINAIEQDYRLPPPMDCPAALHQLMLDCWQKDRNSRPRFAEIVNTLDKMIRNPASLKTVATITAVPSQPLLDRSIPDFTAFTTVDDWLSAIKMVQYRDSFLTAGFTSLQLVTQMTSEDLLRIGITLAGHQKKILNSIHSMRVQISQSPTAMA
The assay can be described thus: Selectivity interaction (Upstate Kinase Profiler service (Millipore)) EUB0000056c EPHB1. As to conditions: at 1 µM.

On to `COCC(=O)NC/C=C/c1ccc2ncnc(Nc3ccc(Oc4ccc(C)nc4)c(C)c3)c2c1` [CP-724714], for which, in assay [1], the % of control was determined as 100%. In assay [2], `CNC(=O)Nc1ccc(-c2nc(N3CC4CCC(C3)O4)c3cnn(C4CCC5(CC4)OCCO5)c3n2)cc1` showed a % of control of 93%. In assay [3], `Cc1ccc(-c2ccc3c(ccc4sc5c(c43)NC[C@@H](C)NC5=O)n2)cn1` had a % of inhibition of 9%.
